Data: paper PMC3214022, “Plasmodium falciparum Parasites Are Killed by a Transition State Analogue of Purine Nucleoside Phosphorylase in a Primate Animal Model” (PLoS ONE, 2011)

Assay: Weights, CBC, blood chemistry and signs of toxicity, Table S1 sheet PD-2 (infected Aotus, twice a day for seven days)
Type: in vivo, Aotus lemurinus lemurinus
Conditions: oral 10 mg/kg twice a day/7 days
Experimental: Laboratory bred Aotus lemurinus lemurinus monkeys (0.75–0.89 kg) were maintained as described. […] Blood samples were collected before the treatment started (t = 0), 0.05 h, 0.5 h, 1 h, 2 h, 6 h, 24 h, 48 h, and 6, 12 and 18 days after the first dose from each monkey and processed as described below. Pharmacokinetic parameters were calculated using PKSolver. For efficacy studies, Aotus monkeys were inoculated intravenously with 5×10^6 parasites of the FVO strain of P. falciparum in an approved treatment protocol. […] Parasitaemia was determined by Giemsa-stained thick blood smears prepared daily from the marginal ear vein [41]. Blood samples were collected from each monkey and transferred to tubes containing lithium heparin, centrifuged and both plasma and blood cells were frozen at −80 °C until analysis. Animals received a physical examination and blood chemistry profiles were monitored after treatment as described previously. Any monkey not responding appropriately to treatment was cured of its infection with mefloquine (40 mg kg^−1). […] The day of clearance is defined as the first of three consecutive days in which the thick blood films are parasite negative. The day of recrudescence is the first of three consecutive days of positive thick blood films after a period of clearance. Suppression is defined as a transient decrease in the parasite count post-treatment without clearance.

## Nc1nc2c(CN3CC(O)C(CO)C3)c[nH]c2c(=O)[nH]1 (centres unmarked) [BCX4945, 4′-deaza-1′-aza-2′-deoxy-1′-(9-methylene)-Immucillin-G]
25044 Male (ITM2), day 8
  Blood Urea Nitrogen: 14.7 mg/dL
  Creatine: 0.5 mg/dL
  Erythrocytes: 4.72e+06 µL⁻¹
  Glutamate Pyruvate Transaminase: 18.8 U/L
  Granulocytes (%): 14.6%
  Granulocytes (x 103/ul): 2.8 x 103/ul
  Hematocrit: 36.6%
  Hemoglobin: 12.9 g/dL
  Leucocytes: 18900 µL⁻¹
  Lymphocytes (%): 74.4%
  Lymphocytes (x 103/ul): 14.1 x 103/ul
  Mean Corpuscular Volume: 77.6 fL
  Mean Hemoglobin Content: 35.3 g/dL
  Mean Platelet Volume: 11.8 fL
  Monocytes (%): 11%
  Monocytes (x 103/ul): 2.1 x 103/ul
  Platelets: 276000 µL⁻¹
  Red Cell Distribution Width: 16.9%
  Reticulocytes: 1.8%
  WEIGHT: 820 g
25044 Male (ITM2), day 12
  Blood Urea Nitrogen: 12.6 mg/dL
  Creatine: 0.5 mg/dL
  Erythrocytes: 4.24e+06 µL⁻¹
  Glutamate Pyruvate Transaminase: 48.0 U/L
  Granulocytes (%): 20%
  Granulocytes (x 103/ul): 2.6 x 103/ul
  Hematocrit: 33.5%
  Hemoglobin: 11.4 g/dL
  Leucocytes: 13200 µL⁻¹
  Lymphocytes (%): 68.9%
  Lymphocytes (x 103/ul): 9.1 x 103/ul
  Mean Corpuscular Hemoglobin: 27 pg
  Mean Corpuscular Volume: 78.9 fL
  Mean Hemoglobin Content: 34.2 g/dL
  Mean Platelet Volume: 9.6 fL
  Monocytes (%): 11.1%
  Monocytes (x 103/ul): 1.5 x 103/ul
  Platelets: 264000 µL⁻¹
  Red Cell Distribution Width: 20.2%
  Reticulocytes: 3.8%
  WEIGHT: 840 g
25044 Male (ITM2), day 15
  Blood Urea Nitrogen: 13.8 mg/dL
  Creatine: 0.5 mg/dL
  Erythrocytes: 4.68e+06 µL⁻¹
  Glutamate Pyruvate Transaminase: 29.1 U/L
  Granulocytes (%): 11.9%
  Granulocytes (x 103/ul): 3.4 x 103/ul
  Hematocrit: 38.8%
  Hemoglobin: 13.6 g/dL
  Leucocytes: 28300 µL⁻¹
  Lymphocytes (%): 78.1%
  Lymphocytes (x 103/ul): 22.1 x 103/ul
  Mean Corpuscular Hemoglobin: 29 pg
  Mean Corpuscular Volume: 83 fL
  Mean Hemoglobin Content: 34.9 g/dL
  Mean Platelet Volume: 12.8 fL
  Monocytes (%): 10%
  Monocytes (x 103/ul): 2.8 x 103/ul
  Platelets: 258000 µL⁻¹
  Red Cell Distribution Width: 23.1%
  Reticulocytes: 2.6%
  WEIGHT: 830 g
25044 Male (ITM2), day 18
  Blood Urea Nitrogen: 15.2 mg/dL
  Creatine: 0.5 mg/dL
  Erythrocytes: 4.88e+06 µL⁻¹
  Glutamate Pyruvate Transaminase: 22.3 U/L
  Granulocytes (%): 15.5%
  Granulocytes (x 103/ul): 2.7 x 103/ul
  Hematocrit: 40.6%
  Hemoglobin: 13.7 g/dL
  Leucocytes: 17100 µL⁻¹
  Lymphocytes (%): 78%
  Lymphocytes (x 103/ul): 13.3 x 103/ul
  Mean Corpuscular Hemoglobin: 28.1 pg
  Mean Corpuscular Volume: 83.2 fL
  Mean Hemoglobin Content: 33.8 g/dL
  Mean Platelet Volume: 12.1 fL
  Monocytes (%): 6.5%
  Monocytes (x 103/ul): 1.1 x 103/ul
  Platelets: 247000 µL⁻¹
  Red Cell Distribution Width: 22.6%
  Reticulocytes: 2.2%
  WEIGHT: 820 g
25044 Male (ITM2), day 25
  Erythrocytes: 4.04e+06 µL⁻¹
  Granulocytes (%): 11.4%
  Granulocytes (x 103/ul): 2.3 x 103/ul
  Hematocrit: 34.8%
  Leucocytes: 19900 µL⁻¹
  Lymphocytes (%): 79.1%
  Lymphocytes (x 103/ul): 15.7 x 103/ul
  Mean Corpuscular Hemoglobin: 27.6 pg
  Mean Corpuscular Volume: 86 fL
  Mean Hemoglobin Content: 32.1 g/dL
  Mean Platelet Volume: 12.7 fL
  Monocytes (%): 9.5%
  Monocytes (x 103/ul): 1.9 x 103/ul
  Platelets: 166000 µL⁻¹
  Red Cell Distribution Width: 22.2%
  Reticulocytes: 2.6%
  WEIGHT: 827 g
25044 Male (ITM2), day -10
  Blood Urea Nitrogen: 11.3 mg/dL
  Creatine: 0.5 mg/dL
  Erythrocytes: 5.93e+06 µL⁻¹
  Glutamate Pyruvate Transaminase: 17.1 U/L
  Granulocytes (%): 13.3%
  Granulocytes (x 103/ul): 4.2 x 103/ul
  Hematocrit: 44.6%
  Hemoglobin: 15.8 g/dL
  Leucocytes: 31300 µL⁻¹
  Lymphocytes (%): 76.1%
  Lymphocytes (x 103/ul): 23.8 x 103/ul
  Mean Corpuscular Hemoglobin: 26.7 pg
  Mean Corpuscular Volume: 75.2 fL
  Mean Hemoglobin Content: 35.5 g/dL
  Mean Platelet Volume: 13.1 fL
  Monocytes (%): 10.6%
  Monocytes (x 103/ul): 3.3 x 103/ul
  Platelets: 236000 µL⁻¹
  Red Cell Distribution Width: 13%
  Reticulocytes: 1.2%
  WEIGHT: 814 g
26027 Male (ITM3), day 8
  Blood Urea Nitrogen: 12.75 mg/dL
  Creatine: 0.5 mg/dL
  Erythrocytes: 4.51e+06 µL⁻¹
  Glutamate Pyruvate Transaminase: 28.1 U/L
  Granulocytes (%): 18.4%
  Granulocytes (x 103/ul): 2.2 x 103/ul
  Hematocrit: 36.2%
  Hemoglobin: 13.0 g/dL
  Leucocytes: 11800 µL⁻¹
  Lymphocytes (%): 70.2%
  Lymphocytes (x 103/ul): 8.3 x 103/ul
  Mean Corpuscular Hemoglobin: 28.9 pg
  Mean Corpuscular Volume: 80.2 fL
  Mean Hemoglobin Content: 36 g/dL
  Mean Platelet Volume: 11.7 fL
  Monocytes (%): 11.4%
  Monocytes (x 103/ul): 1.3 x 103/ul
  Platelets: 216000 µL⁻¹
  Red Cell Distribution Width: 11.8%
  Reticulocytes: 1.4%
  WEIGHT: 890 g
26027 Male (ITM3), day 12
  Blood Urea Nitrogen: 12.9 mg/dL
  Creatine: 0.5 mg/dL
  Erythrocytes: 4.4e+06 µL⁻¹
  Glutamate Pyruvate Transaminase: 33.4 U/L
  Granulocytes (%): 26.5%
  Granulocytes (x 103/ul): 4.8 x 103/ul
  Hematocrit: 36.1%
  Hemoglobin: 13.1 g/dL
  Leucocytes: 18200 µL⁻¹
  Lymphocytes (%): 67.6%
  Lymphocytes (x 103/ul): 12.3 x 103/ul
  Mean Corpuscular Hemoglobin: 29.8 pg
  Mean Corpuscular Volume: 82.1 fL
  Mean Hemoglobin Content: 36.3 g/dL
  Mean Platelet Volume: 12.2 fL
  Monocytes (%): 5.9%
  Monocytes (x 103/ul): 1.1 x 103/ul
  Platelets: 339000 µL⁻¹
  Red Cell Distribution Width: 12.1%
  Reticulocytes: 2.6%
  WEIGHT: 890 g
26027 Male (ITM3), day 15
  Blood Urea Nitrogen: 17.15 mg/dL
  Creatine: 0.512 mg/dL
  Erythrocytes: 4.77e+06 µL⁻¹
  Glutamate Pyruvate Transaminase: 27.1 U/L
  Granulocytes (%): 32.6%
  Granulocytes (x 103/ul): 4 x 103/ul
  Hematocrit: 40.6%
  Hemoglobin: 14.5 g/dL
  Leucocytes: 12200 µL⁻¹
  Lymphocytes (%): 63%
  Lymphocytes (x 103/ul): 7.7 x 103/ul
  Mean Corpuscular Hemoglobin: 30.4 pg
  Mean Corpuscular Volume: 85 fL
  Mean Hemoglobin Content: 35.8 g/dL
  Monocytes (%): 4.4%
  Monocytes (x 103/ul): 0.5 x 103/ul
  Platelets: 245000 µL⁻¹
  Red Cell Distribution Width: 18.5%
  Reticulocytes: 3.1%
